Measured values published in patent publication US20120264735A1 (priority 2009, published 2012).
Counter-ions that a name gives are not always drawn.

target: T1, c-Met kinase (recombinant c-Met) (Homo sapiens, UniProt P08581); test: In vitro kinase assay I (homogeneous time-resolved fluorescence tyrosine kinase assay); format: biochemical
T1 construct: 0.27 nM recombinant c-Met
Outline: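 Biotinylated peptide (0.5 μM) phosphorylated by 0.2 nM recombinant c-Met with 50 μM MgATP, 60 min at room temperature, pH 7.4, 5% DMSO. EDTA stop; HTRF read with Eu-anti-phosphotyrosine antibody and streptavidin-APC. IC50 from 4-parameter logistic fit.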

T1 sequence (P08581 25-1390): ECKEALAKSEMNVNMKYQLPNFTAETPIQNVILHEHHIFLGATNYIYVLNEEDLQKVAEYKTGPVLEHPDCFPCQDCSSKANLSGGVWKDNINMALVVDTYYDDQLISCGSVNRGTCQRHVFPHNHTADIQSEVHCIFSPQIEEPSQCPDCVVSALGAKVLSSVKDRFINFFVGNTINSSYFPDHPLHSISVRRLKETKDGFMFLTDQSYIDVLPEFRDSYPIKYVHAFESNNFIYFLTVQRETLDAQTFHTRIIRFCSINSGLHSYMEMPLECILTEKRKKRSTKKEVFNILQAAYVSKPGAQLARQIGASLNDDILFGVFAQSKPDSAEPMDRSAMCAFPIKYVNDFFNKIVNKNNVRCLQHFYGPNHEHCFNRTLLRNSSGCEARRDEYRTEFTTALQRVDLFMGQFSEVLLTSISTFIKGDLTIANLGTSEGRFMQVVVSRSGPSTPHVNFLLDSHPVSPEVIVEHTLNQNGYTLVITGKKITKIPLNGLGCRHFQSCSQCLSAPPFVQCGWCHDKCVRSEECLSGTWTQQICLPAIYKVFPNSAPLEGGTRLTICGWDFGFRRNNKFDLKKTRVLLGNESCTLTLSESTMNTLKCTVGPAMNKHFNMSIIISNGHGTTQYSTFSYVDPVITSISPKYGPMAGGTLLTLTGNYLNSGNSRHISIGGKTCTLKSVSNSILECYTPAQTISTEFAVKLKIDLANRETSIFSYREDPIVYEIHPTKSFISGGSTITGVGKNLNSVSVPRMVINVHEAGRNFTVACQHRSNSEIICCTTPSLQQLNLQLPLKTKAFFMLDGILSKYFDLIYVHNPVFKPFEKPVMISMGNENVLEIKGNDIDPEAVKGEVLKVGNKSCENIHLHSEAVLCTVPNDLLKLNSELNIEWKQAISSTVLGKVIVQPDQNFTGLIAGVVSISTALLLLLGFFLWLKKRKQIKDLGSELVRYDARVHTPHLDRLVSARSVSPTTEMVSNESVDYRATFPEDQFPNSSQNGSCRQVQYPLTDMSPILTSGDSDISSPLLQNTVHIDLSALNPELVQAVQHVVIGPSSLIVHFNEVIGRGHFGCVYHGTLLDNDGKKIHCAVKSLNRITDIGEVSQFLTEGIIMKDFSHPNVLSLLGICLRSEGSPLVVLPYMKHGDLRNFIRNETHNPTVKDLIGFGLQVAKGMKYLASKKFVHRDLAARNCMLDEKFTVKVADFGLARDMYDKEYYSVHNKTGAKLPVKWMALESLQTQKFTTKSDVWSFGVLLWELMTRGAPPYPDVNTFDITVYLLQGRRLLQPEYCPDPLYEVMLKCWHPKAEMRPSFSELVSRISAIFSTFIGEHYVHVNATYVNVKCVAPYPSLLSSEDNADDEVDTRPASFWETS

`CC(C)COC(=O)Nc1cccc(Cc2nn(-c3cnn(CCCC(=O)O)c3)ccc2=O)c1` [Example 180, 4-{4-[3-(3-{[(2-methylpropoxy)carbonyl]amino}benzyl)-4-oxopyridazin-1(4H)-yl]-1H-pyrazol-1-yl}butanoic acid] and `CC(C)COC(=O)Nc1cccc(Cc2nn(-c3cnn(CCC(=O)O)c3)ccc2=O)c1` [Example 182, 3-{4-[3-(3-{[(2-methylpropoxy)carbonyl]amino}benzyl)-4-oxopyridazin-1(4H)-yl]-1H-pyrazol-1-yl}propanoic acid] cannot be ordered by IC50: less than 0.1 µM for the first, less than 0.1 µM for the second.

`CC(C)COC(=O)Nc1cccc(Cc2nn(-c3cnn(CC(=O)O)c3)ccc2=O)c1` [Example 181, {4-[3-(3-{[(2-methylpropoxy)carbonyl]amino}benzyl)-4-oxopyridazin-1(4H)-yl]-1H-pyrazol-1-yl}acetic acid] and `COCCOC(=O)Nc1cccc(Cc2nn(-c3cn[nH]c3)ccc2=O)c1` [Example 196, 2-methoxyethyl (3-{[4-oxo-1-(1H-pyrazol-4-yl)-1,4-dihydropyridazin-3-yl]methyl}phenyl)carbamate] cannot be ordered by IC50: less than 0.1 µM for the first, less than 0.1 µM for the second.

Compared with `Cn1cc(-n2ccc(=O)c(Cc3cccc(-c4ncc(N)cn4)c3)n2)cn1` [Example 183, 3-[3-(5-Aminopyrimidin-2-yl)benzyl]-1-(1-methyl-1H-pyrazol-4-yl)pyridazin-4(1H)-one], `Cn1cc(-n2ccc(=O)c(Cc3cccc(-c4ncc(O)cn4)c3)n2)cn1` [Example 187, 3-[3-(5-Hydroxypyrimidin-2-yl)benzyl]-1-(1-methyl-1H-pyrazol-4-yl)pyridazin-4(1H)-one] is higher in IC50: less than 0.1 µM for the first, 0.1 to 1 µM for the second.

Compared with `Cn1cc(-n2ccc(=O)c(Cc3ccc4[nH]ncc4c3)n2)cn1` [Example 184, 3-(1H-Indazol-5-ylmethyl)-1-(1-methyl-1H-pyrazol-4-yl)pyridazin-4(1H)-one], `Cn1cc(-n2ccc(=O)c(Cc3cccc(-c4nc[nH]n4)c3)n2)cn1` [Example 186, 1-(1-Methyl-1H-pyrazol-4-yl)-3-[3-(1H-1,2,4-triazol-3-yl)benzyl]pyridazin-4(1H)-one hydrochloride] is lower in IC50: 0.1 to 1 µM for the first, less than 0.1 µM for the second.

First: CCCc1nc(-c2cccc(Cc3nn(-c4cnn(C)c4)ccc3=O)c2)n[nH]1 [Example 185, 1-(1-Methyl-1H-pyrazol-4-yl)-3-[3-(5-propyl-1H-1,2,4-triazol-3-yl)benzyl]pyridazin-4(1H)-one]
Second: Cn1cc(-n2ccc(=O)c(Cc3cccc(-c4ncc(CO)cn4)c3)n2)cn1 [Example 190, 3-{3-[5-(Hydroxymethyl)pyrimidin-2-yl]benzyl}-1-(1-methyl-1H-pyrazol-4-yl)pyridazin-4(1H)-one]
The IC50 of the first is higher: 0.1 to 1 µM for the first, less than 0.1 µM for the second. The second is the more potent here.

`O=c1ccn(-c2ccc(F)c(F)c2)nc1Cc1cccc(-c2ncc(O)cn2)c1` [Example 188, 1-(3,4-Difluorophenyl)-3-[3-(5-hydroxypyrimidin-2-yl)benzyl]pyridazin-4(1H)-one] and `O=c1ccn(-c2cn[nH]c2)nc1Cc1cccc(-c2ncc(O)cn2)c1` [Example 194, 3-[3-(5-Hydroxypyrimidin-2-yl)benzyl]-1-(1H-pyrazol-4-yl)pyridazin-4(1H)-one] fall in the same range of IC50: 0.1 to 1 µM for the first, 0.1 to 1 µM for the second.

`CCn1cnc(-c2cccc(Cc3nn(-c4cnn(CCO)c4)ccc3=O)c2)n1` [Example 191, 3-[3-(1-Ethyl-1H-1,2,4-triazol-3-yl)benzyl]-1-[1-(2-hydroxyethyl)-1H-pyrazol-4-yl]pyridazin-4(1H)-one] and `CCOc1cnc(-c2cccc(Cc3nn(-c4cnn(CCO)c4)ccc3=O)c2)nc1` [Example 193, 3-[3-(5-ethoxypyrimidin-2-yl)benzyl]-1-[1-(2-hydroxyethyl)-1H-pyrazol-4-yl]pyridazin-4(1H)-one] cannot be ordered by IC50: less than 0.1 µM for the first, less than 0.1 µM for the second.

`CCOc1cnc(-c2cccc(Cc3nn(-c4cn[nH]c4)ccc3=O)c2)nc1` [Example 195, 3-[3-(5-Ethoxypyrimidin-2-yl)benzyl]-1-(1H-pyrazol-4-yl)pyridazin-4(1H)-one] was tested, and the IC50 was less than 0.1 µM.
